Reference: patent US12115157B2, “3-phenoxyazetidin-1-yl-heteroaryl pyrrolidine derivatives and the use thereof as medicament” (Boehringer Ingelheim International GmbH, priority 2021, dated 2024)

How the values were obtained:
human hepatocytes = assay: Metabolic stability in human hepatocytes; format: in vitro ADME; conditions: human hepatocyte suspension, 1 μM; predicted hepatic clearance as percentage of hepatic blood flow
Experimental: The metabolic degradation of a test compound was assayed in a human hepatocyte suspension. After recovery from cryopreservation, human hepatocytes were diluted in Dulbecco's modified eagle medium (supplemented with 3.5 μg glucagon/500 mL, 2.5 mg insulin/500 mL, 3.75 mg hydrocortisone/500 mL, 5% human serum) to obtain a final cell density of 1.0×10^6 cells/mL or 4.0×10^6 cells/mL, depending on the metabolic turnover rate of the test compound.
Following a 30 minutes preincubation in a cell culture incubator (37° C., 10% CO2), test compound solution was spiked into the hepatocyte suspension, resulting in a final test compound concentration of 1 μM and a final DMSO concentration of 0.05% (v/v).
The cell suspension was incubated at 37° C. (cell culture incubator, horizontal shaker) and samples were removed from the incubation after 0, 0.5, 1, 2, 4 and 6 hours. Samples were quenched with acetonitrile (containing internal standard) and pelleted by centrifugation. The supernatant was transferred to a 96-deepwell plate, and prepared for analysis of decline of parent compound by HPLC-MS/MS.
The percentage of remaining test compound was calculated using the peak area ratio (test compound/internal standard) of each incubation time point relative to the time point 0 peak area ratio. The log-transformed data were plotted versus incubation time, and the absolute value of the slope obtained by linear regression analysis was used to estimate in vitro half-life (T1/2).
In vitro intrinsic clearance (CLint) was calculated from in vitro T1/2 and scaled to whole liver using a hepatocellularity of 120×10^6 cells/g liver, a human liver per body weight of 25.7 g liver/kg as well as in vitro incubation parameters, applying the following equation: CL_[…]_IN VIVO[mL/min/kg]=(CL_[…][μL/min/10^6 cells]×hepatocellularity[10^6 cells/g liver]×liver factor[g/kg body weight])/1000
Hepatic in vivo blood clearance (CL) was predicted according to the well-stirred liver model considering an average liver blood flow (QH) of 20.7 mL/min/kg: CL[mL/min/kg]=CL_[…]_IN VIVO[mL/min/kg]×hepatic blood flow[mL/min/kg]/(CL_[…]_IN VIVO[mL/min/kg]+hepatic blood flow[mL/min/kg])
Results were expressed as percentage of hepatic blood flow: QH[%]=CL[mL/min/kg]/hepatic blood flow[mL/min/kg])

[1] = test system: human recombinant CYP enzymes (1A1, 1A2, 2B6, 2C8, 2C9, 2C19, 2D6, 3A4, 3A5); assay: CYP phenotyping with human recombinant CYP enzymes (Supersomes); format: in vitro ADME; set-up: key: yes: Metabolite is formed in presence of human recombinant CYP-enzymes; Metabolite is not detected in presence of human recombinant CYP-enzymes as indication of a non-CYP-dependent pathway
Experimental: (§1) In vitro metabolite profiling to evaluate the involvement of non-CYP-enzyme-mediated metabolic pathways such as hydrolysis in addition to CYP-mediated pathways is based on the semiquantitative analysis of the formation of prototypic metabolites in incubations with liver microsomes (with and without beta-nicotinamide adenine dinucleotide phosphate, NADPH), primary human hepatocytes (with and without the pan-CYP inhibitor proadifen) and recombinant CYP enzymes.
(§2) The involvement of hydrolases, such as carboxylesterases or arylacetamide deacetylase, is assumed if the metabolite resulting from amide hydrolysis of a compound of the present invention of general formula (I) wherein R^6 is an acetyl-group, i.e. the deacetylated compound thereof, is not formed in presence of the relevant drug-metabolizing human recombinant CYP enzymes but is formed in human liver microsomes in the absence of NADPH. Hydrolases are highly abundant in liver microsomes; however, in contrast to CYP-related metabolic processes, the catalytic activity of hydrolases is independent of NADPH. As such, the deacetylated metabolite would be formed in incubations of human liver microsomes lacking NADPH.
(§3) A phenotyping assay was performed to identify the CYP enzymes responsible for metabolic conversion of the compound. The metabolic degradation of the test compound and the assessment of formation of metabolites was performed using Supersomes (human CYP expressed in baculovirus infected insect cells) and human liver microsomes, respectively. Compounds were tested specifically for their conversion by CYP isoenzymes 1A1, 1A2, 2B6, 2C8, 2C9, 2C19, 2D6, 3A4 and 3A5. […]
(§4) Following a short preincubation period for 15 min at 37° C., the reaction was initiated by addition of NADPH (reduced form, 1 mM). […] Samples were analyzed for formation of putative metabolites by means of by liquid chromatography-high resolution mass spectrometry.

[2] = In vitro metabolite profiling in human liver microsomes in absence of NADPH; format: in vitro ADME; set-up: key: yes: Metabolite is formed in presence of human liver microsomes in the absence of cofactors as indication of a non-CYP-dependent pathway; Metabolite is not detected in microsomal incubations
Experimental: as §1, §2, §3, §4

human GPR52 = human GPR52 (Homo sapiens (Human), UniProt Q9Y2T5); assay: HTRF assay for direct cAMP measurement; format: cell-based; conditions: CHO-K1 cells stably expressing recombinant human GPR52, mean EC50
Experimental: HTRF cAMP assays were performed using commercially available assay kits according to the manufacturer's instructions (cAMP Dynamic 2 Assay Kit; #62AM4PEJ, Cisbio Bioassays, Bedford, MA). An aliquot of CHO-K1 cells stably expressing recombinant human GPR52 was thawed and resuspended in cell buffer (1×PBS (w/o Ca^2+/Mg^2+)) at a density of 4×10^5 cells per mL. Test compounds were solubilized in DMSO to 10 mM stock solutions and serially diluted in DMSO using 6-fold dilutions to generate 8-point dose response curves. These serially diluted samples were then diluted 1:50 in compound dilution buffer (1×PBS (w/o Ca^2+/Mg^2+) containing 0.5 mM IBMX, 0.1% BSA) to achieve a 4× stock. The diluted compounds were transferred (5 μL per well) in duplicate to the 384-well assay plate (Optiplate #6007290, PerkinElmer, Waltham, MA). Both a positive (reference compound) and negative (non-stimulated vehicle) control was included in each assay run in column 23. The cell suspension was subsequently dispensed into the 384-well assay plates at 15 μL per well (6000 cells) such that the compound was diluted to 1×. […] After a one-hour incubation at room temperature, 10 μL of cAMP D2 reagent followed by 10 μL of cryptate reagent (provided in the Cisbio kit) was added to each well. Plates were then incubated at room temperature for one hour prior to reading. Time-resolved fluorescence measurements were collected on an EnVision® HTRF plate reader (PerkinElmer, Waltham, MA). Counts from the plate reader were fit to the cAMP standard curve included on each plate to determine the amount of cAMP in each test well. The % control was calculated based on the […]. Dose-response curves were generated from the cAMP data and analyzed using a nonlinear least squares curve-fitting program to obtain EC50 values.

[3] = secondary metabolite m443 (of m429)
[4] = secondary metabolite m405 (of m411)
[5] = secondary metabolite m425 (of m411)

human GPR52, sequence (Q9Y2T5 whole entry): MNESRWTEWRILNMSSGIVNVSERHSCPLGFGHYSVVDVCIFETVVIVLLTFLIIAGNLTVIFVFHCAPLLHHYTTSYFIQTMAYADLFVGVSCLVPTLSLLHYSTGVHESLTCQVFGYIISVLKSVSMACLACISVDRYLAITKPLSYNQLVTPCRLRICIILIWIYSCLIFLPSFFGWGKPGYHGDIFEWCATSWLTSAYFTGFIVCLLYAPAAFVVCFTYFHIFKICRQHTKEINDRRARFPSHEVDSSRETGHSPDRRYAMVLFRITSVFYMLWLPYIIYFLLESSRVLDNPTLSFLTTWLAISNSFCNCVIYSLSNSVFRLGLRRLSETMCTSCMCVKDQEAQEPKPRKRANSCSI

Compound	Human HepStab (human hepatocytes)	Specific formation in human recombinant CYP enzymes [1, 3]	Formation in human liver microsomal incubations in absence of NADPH [2, 3]	Specific formation in human recombinant CYP enzymes [1, 4]	Specific formation in human recombinant CYP enzymes [1, 5]	EC50 (human GPR52)	Formation in human liver microsomal incubations in absence of NADPH [2, 4]	Formation in human liver microsomal incubations in absence of NADPH [2, 5]
CC(=O)N1C[C@H](NC(=O)c2nccnc2N2CC(Oc3cc(F)c(F)c(F)c3)C2)C(F)(F)C1 [Example 11b]	11.4 % QH	no	no^6					
CC(=O)N1C[C@H](NC(=O)c2nccnc2N2CC(Oc3cc(F)cc(F)c3)C2)C(F)(F)C1 [Example 10a]	15.3 % QH			no^5	no^5	14 nM	no^5	no^5
CC(=O)N1CC[C@@H](NC(=O)c2nsnc2N2CC(Oc3cc(F)cc(F)c3)C2)C1 [Example 15a]	6.4 % QH					20 nM		
